# Source: PMC3828267 (PLoS ONE, 2013)
# Like-named read-outs stand apart in the source and are kept apart here.
# Experiments:
# α3β4 AChRs [1] = molecular target: T1, α3β4 AChRs (Homo sapiens, UniProt P30926+P32297); assay: Smoldering activation following acute desensitization, α3β4; type: cell-based; settings: α3β4, antagonist 10 µM applied after 10 minutes
# T1 construct: expressed in transfected cells
# Method: (§1) Responses were monitored for 10 minutes, and then specific antagonists were added and responses recorded for another two minutes.
# (α4β2)2α4 AChRs = settings: cited from earlier work
# α7 AChRs [2] = molecular target: T2, α7 AChRs (Homo sapiens, UniProt P36544); assay: Chronic desensitization (16 h agonist, then ACh response) and calculated smoldering activation, α7 cell line; type: cell-based; parameters: expressed in transfected cells; grown in VPA and PBA; settings: α7: 10 µM ACh
# T2 sequence (P36544 23-502): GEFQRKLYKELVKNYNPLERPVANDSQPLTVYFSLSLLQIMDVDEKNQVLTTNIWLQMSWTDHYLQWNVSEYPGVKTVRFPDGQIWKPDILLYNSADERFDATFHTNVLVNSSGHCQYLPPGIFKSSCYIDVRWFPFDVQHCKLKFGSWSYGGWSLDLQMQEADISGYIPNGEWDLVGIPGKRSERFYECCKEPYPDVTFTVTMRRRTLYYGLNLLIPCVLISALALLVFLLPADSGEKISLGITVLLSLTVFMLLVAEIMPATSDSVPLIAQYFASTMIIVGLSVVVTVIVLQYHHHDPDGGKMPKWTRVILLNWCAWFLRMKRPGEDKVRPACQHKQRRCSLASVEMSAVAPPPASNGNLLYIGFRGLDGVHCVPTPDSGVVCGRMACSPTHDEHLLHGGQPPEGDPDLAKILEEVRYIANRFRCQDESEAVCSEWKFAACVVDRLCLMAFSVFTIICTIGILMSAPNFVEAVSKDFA
# Method: (§2) To measure desensitization, plates were prepared as for agonist assays. Sixteen hours prior to the assay, serial dilutions of agonists, prepared in regular growth medium, were added to the plates. One hour before the assay, the membrane potential-sensitive fluorescent dye with 0.5 µM atropine was added to the wells. […] Each data point represents the average of peak values for individual dose response curves from 4–8 wells.
# (§3) Data were graphed using GraphPad Prism software. Non-linear models (sigmoidal dose-response with variable slope or two site competition) were used to fit the concentration response curves. The EC50 and IC50 were calculated from the curves. Kaleidagraph software was used to determine Hill slopes and standard errors of the EC50 and IC50.
# (§4) Responses for the three different AChRs are shown in Figures 3, 4, 5, 6, along with the dose response curves for activation (the same as shown in Figure 2). The range of concentrations at which both sustained activation and desensitization can occur (“smoldering activation”) was calculated by multiplying the acute response to agonists at each concentration by the fractional response remaining after desensitization.
# (α4β2)2β2 AChRs [3] = molecular target: T3, (α4β2)2β2 AChRs (Homo sapiens, UniProt P17787+P43681); assay: Sazetidine-A desensitization of α4β2 cell line enriched for (α4β2)2β2 by β2 transfection and nicotine; type: cell-based; settings: 6 h sazetidine-A, 3 µM and 100 µM ACh curves overlapped
# T3 construct: expressed in transfected cells
# T3 sequence (P43681 29-627 limits assumed): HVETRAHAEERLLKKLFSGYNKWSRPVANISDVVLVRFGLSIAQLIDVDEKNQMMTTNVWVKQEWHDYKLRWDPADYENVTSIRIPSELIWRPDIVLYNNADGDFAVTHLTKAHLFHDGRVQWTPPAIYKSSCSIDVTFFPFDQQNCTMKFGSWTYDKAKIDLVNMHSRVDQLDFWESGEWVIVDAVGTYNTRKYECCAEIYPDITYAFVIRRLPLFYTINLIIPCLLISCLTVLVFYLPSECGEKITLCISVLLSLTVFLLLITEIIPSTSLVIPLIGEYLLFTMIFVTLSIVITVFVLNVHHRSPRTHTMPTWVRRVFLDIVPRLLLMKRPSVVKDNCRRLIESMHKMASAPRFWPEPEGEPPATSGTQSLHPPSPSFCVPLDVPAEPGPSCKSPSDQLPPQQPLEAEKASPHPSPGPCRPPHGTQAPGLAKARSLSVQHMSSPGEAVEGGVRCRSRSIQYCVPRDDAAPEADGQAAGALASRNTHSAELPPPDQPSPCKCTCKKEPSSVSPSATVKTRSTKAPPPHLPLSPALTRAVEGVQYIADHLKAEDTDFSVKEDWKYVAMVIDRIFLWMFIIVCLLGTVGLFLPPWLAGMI
# T3 sequence (P17787 26-502): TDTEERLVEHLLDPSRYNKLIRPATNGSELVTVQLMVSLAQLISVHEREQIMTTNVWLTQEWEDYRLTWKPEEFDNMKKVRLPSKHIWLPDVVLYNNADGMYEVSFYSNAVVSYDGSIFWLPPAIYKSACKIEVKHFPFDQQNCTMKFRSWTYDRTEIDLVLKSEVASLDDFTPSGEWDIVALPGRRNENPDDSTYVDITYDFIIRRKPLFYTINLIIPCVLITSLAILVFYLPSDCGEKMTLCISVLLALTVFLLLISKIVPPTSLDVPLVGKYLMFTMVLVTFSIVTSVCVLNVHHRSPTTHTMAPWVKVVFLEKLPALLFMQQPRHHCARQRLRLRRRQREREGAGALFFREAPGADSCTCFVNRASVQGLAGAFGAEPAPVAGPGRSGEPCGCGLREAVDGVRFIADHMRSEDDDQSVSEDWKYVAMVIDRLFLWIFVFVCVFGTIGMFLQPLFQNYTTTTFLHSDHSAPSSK
# Source text: To determine which stoichiometry of α4β2 AChRs was affected by sazetidine-A, we performed short term transfection of β2 subunits into the α4β2 expressing cell line. To increase the expression of the higher sensitivity (α4β2)2β2 stoichiometry, the cell line expressing α4 and β2 was cotransfected with human β2 (pRc-CMV/Geneticin) using the FuGene6 transfection agent (Roche Diagnostics, Indianapolis, IN).
# α7 AChRs [4] = molecular target: T2, α7 AChRs; assay: Acute activation, FLEXStation membrane potential dye, α7/RIC-3 cell line; type: cell-based; parameters: expressed in transfected cells; grown in VPA and PBA; settings: α7
# Method: (§5) The parental cell line used for transfections was tsA201, derived from the human embryonic kidney cell line (HEK) 293 [33]. […] The cell line permanently expressing α3β4 AChRs has been described, [34]. A stable cell line expressing functional α7 AChRs was prepared by initially transfecting the tsA201 cell line with cDNA for α7 and subsequently transfecting with cDNA for the AChR-selective chaperone, human RIC-3.
# (§6) Responses to nicotinic agonists were determined using a FLEXStation microplate fluorometer (Molecular Devices, Sunnyvale, CA) as described. For cell lines expressing α4β2 and α3β4 AChRs, the cells were plated at 10^5 cells/ml (100 µl/well) in black-walled clear-bottom 96 well plates (Costar, Fisher Scientific, Pittsbugh, PA), and incubated for 48 hours prior to assaying responses to various nicotinic agonists. The α7/RIC-3 expressing cells were plated at 5×10^5/ml in black-walled clear-bottom 96 well BioCoat plates (BD Biosciences, Franklin Lakes, NJ) in the continued presence of VPA and PBA, with the addition of 5% human AB serum (Pel-Freez Biologicals, Rogers, AR) to further increase expression of α7 [35]. The cells were then grown for 24 hours prior to the assay.
# (§7) To measure responses to various nicotinic agonists, 100 µl of a fluorescent dye which is sensitive to changes in membrane potential (Molecular Devices) was added to the wells. The dye was prepared according to the manufacturer’s instructions, with the addition of atropine (0.5 µM) to block muscarinic responses. The plates were then incubated at 37°C for one hour prior to the assay. Serial dilutions of agonists were then prepared in Hanks Balanced Salt Solution (HBSS) in V-shaped 96-well plates (Fisher Scientific Co, Pittsburgh, PA). Fluorescent responses were measured in the FLEX Station at 25°C, with an excitation wavelength of 530 nm and an emission wavelength of 565 nm. Various agonists (50 µl) were added after the first 20 seconds and responses were followed for 60–120 seconds.
# as §3
# (α4β2)2β2 AChRs [5] = molecular target: T3, (α4β2)2β2 AChRs; settings: cited from earlier work
# [6] = parameters: method as in PMID 22899751; settings: mice treated with 2 mg/kg; cited from earlier work
# human α4β2 AChRs [7] = molecular target: T4, human α4β2 AChRs (Homo sapiens, UniProt P17787+P43681); assay: Acute activation, FLEXStation membrane potential dye, α4β2 cell line; type: cell-based
# T4 construct: expressed in transfected cells
# T4 sequence (P43681 29-627 limits assumed): as the sequence (P43681 29-627 limits assumed) above
# T4 sequence (P17787 26-502): as the sequence (P17787 26-502) above
# Method: as §5, §6, §7, §3
# human α4β2 AChRs [8] = molecular target: T4, human α4β2 AChRs; assay: Chronic desensitization (16 h agonist, then ACh response) and calculated smoldering activation, α4β2 cell line; type: cell-based; settings: for IC50: overnight (16 h) agonist, first (more sensitive) component, read-out: Desensitization IC50; for Hill (desensitization): first component
# Method: as §2, §3, §4
# α3β4 AChRs [9] = molecular target: T1, α3β4 AChRs; assay: Acute activation, FLEXStation membrane potential dye, α3β4 cell line; type: cell-based; settings: α3β4
# Method: as §5, §6, §7, §3
# α3β4 AChRs [10] = molecular target: T1, α3β4 AChRs; assay: Chronic desensitization (16 h agonist, then ACh response) and calculated smoldering activation, α3β4 cell line; type: cell-based; settings: α3β4: 1.0 mM ACh
# Method: as §2, §3, §4
# α7 AChRs [11] = molecular target: T2, α7 AChRs; settings: α7, antagonist 10 µM applied after 10 minutes
# Method: as §1
# [12] = overnight (16 h) agonist, read-out: Desensitization IC50
# T1 sequence (P32297 32-505): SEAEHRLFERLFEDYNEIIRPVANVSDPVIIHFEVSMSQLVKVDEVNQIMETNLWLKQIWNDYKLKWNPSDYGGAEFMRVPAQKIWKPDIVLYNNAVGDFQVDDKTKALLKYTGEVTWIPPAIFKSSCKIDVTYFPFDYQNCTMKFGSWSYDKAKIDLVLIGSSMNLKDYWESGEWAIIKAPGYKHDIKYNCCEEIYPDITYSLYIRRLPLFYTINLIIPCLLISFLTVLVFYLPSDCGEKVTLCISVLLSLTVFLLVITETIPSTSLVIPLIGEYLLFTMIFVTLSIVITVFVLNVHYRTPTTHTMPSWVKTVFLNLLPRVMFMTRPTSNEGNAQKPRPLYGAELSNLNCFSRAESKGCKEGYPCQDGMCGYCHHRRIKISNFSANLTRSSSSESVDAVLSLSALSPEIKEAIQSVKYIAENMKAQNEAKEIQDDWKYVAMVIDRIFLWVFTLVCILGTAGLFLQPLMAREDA
# T1 sequence (P30926 22-498): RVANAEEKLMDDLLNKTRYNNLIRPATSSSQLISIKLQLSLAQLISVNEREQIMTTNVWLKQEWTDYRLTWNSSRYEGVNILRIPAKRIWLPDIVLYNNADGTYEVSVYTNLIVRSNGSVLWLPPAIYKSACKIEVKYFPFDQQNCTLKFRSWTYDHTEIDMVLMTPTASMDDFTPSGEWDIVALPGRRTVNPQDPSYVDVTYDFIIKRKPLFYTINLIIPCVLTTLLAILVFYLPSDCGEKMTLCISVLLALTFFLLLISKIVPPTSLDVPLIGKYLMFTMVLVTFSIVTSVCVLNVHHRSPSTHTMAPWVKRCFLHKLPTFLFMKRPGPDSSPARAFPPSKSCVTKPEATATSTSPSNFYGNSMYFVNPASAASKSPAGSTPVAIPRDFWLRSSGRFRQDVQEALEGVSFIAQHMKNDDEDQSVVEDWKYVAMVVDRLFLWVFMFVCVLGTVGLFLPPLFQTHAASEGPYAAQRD
compound,measurement,setting,value
"CNC1(C)C2CCC(C2)C1(C)C (stereo not shown) [MCA, mecamylamine]",Effect of antagonist on sustained agonist response,α3β4 AChRs [1],abrogated
OCCCCC#Cc1cncc(OC[C@@H]2CCN2)c1 [Sazetidine-A],Activity,"(α4β2)2α4 AChRs; (α4β2)2α4, Xenopus oocytes expressing human α4 and β2 subunits",6%
same,Agonist type,"(α4β2)2α4 AChRs; (α4β2)2α4, concatenated AChRs in Xenopus oocytes",partial agonist with very low efficacy
same,Efficacy,"(α4β2)2α4 AChRs; (α4β2)2α4 stoichiometry, concatenated AChRs in Xenopus oocytes",< 1%
same,Hill (desensitization),α7 AChRs [2],−2.9
same,Intercept of Activation and Desensitization Curves,α7 AChRs [2],1.5 µM
same,IC50,α7 AChRs [2]; [12],3500 ± 400 nM
same,Stoichiometry of α4β2 desensitized,(α4β2)2β2 AChRs [3],desensitizes only the (α4β2)2β2 stoichiometry
same,Agonist type (full or partial),α7 AChRs [4],full agonist
same,Efficacy (%) (relative to ACh),α7 AChRs [4],100%
same,Hill (activation),α7 AChRs [4],1.6
same,EC50,α7 AChRs [4]; read-out: Activation EC50,1200 ± 80 nM
same,Agonist type,"(α4β2)2β2 AChRs [5]; (α4β2)2β2, Xenopus oocytes expressing human α4 and β2 subunits",full agonist
same,Agonist type,"(α4β2)2β2 AChRs [5]; (α4β2)2β2, concatenated AChRs in Xenopus oocytes",full agonist
same,Brain levels,[6],150 nM
same,Serum levels,[6],1600 nM
same,Efficacy (%) (relative to ACh),human α4β2 AChRs [7]; α4β2,44%
same,Agonist type (full or partial),"human α4β2 AChRs [7]; α4β2, mixture of stoichiometries",partial agonist
same,Hill (activation),"human α4β2 AChRs [7]; α4β2, higher sensitivity component or monophasic curve",1.2
same,EC50,"human α4β2 AChRs [7]; α4β2 cell line, mixed stoichiometries, higher sensitivity component where two-site fit, else monophasic, read-out: Activation EC50",2.3 ± 0.3 nM
same,Area of overlap of activation and desensitization curves centered at,"human α4β2 AChRs [8]; (α4β2)2β2 AChRs, 3 µM ACh",1.5 nM
same,Extent of desensitization of α4β2 AChRs to ACh,"human α4β2 AChRs [8]; prolonged exposure, up to high concentrations",full desensitization was not reached even at high concentrations
same,Concentration from which the desensitization dose response curve shows a plateau,"human α4β2 AChRs [8]; α4β2, assayed with 100 µM ACh",around 10 nM
same,Intercept of Activation and Desensitization Curves,"human α4β2 AChRs [8]; α4β2: 3 µM ACh ((α4β2)2β2 stoichiometry), centre of smoldering activation",0.0015 µM
same,Intercept of Activation and Desensitization Curves,"human α4β2 AChRs [8]; α4β2: 3 µM ACh ((α4β2)2β2 stoichiometry), centre of smoldering activation, listed as sazetidine-A",around 0.0015 µM
same,IC50,human α4β2 AChRs [8]; α4β2: 3 µM ACh,0.48 ± 0.02 nM
same,Hill (desensitization),human α4β2 AChRs [8]; α4β2: 3 µM ACh,−0.9
same,Intercept of Activation and Desensitization Curves,human α4β2 AChRs [8]; α4β2: 100 µM ACh (both stoichiometries),0.002 µM
same,IC50,human α4β2 AChRs [8]; α4β2: 100 µM ACh,0.26 ± 0.2 nM
same,Hill (desensitization),human α4β2 AChRs [8]; α4β2: 100 µM ACh,−0.6
same,Agonist type (full or partial),α3β4 AChRs [9],full agonist
same,Efficacy (%) (relative to ACh),α3β4 AChRs [9],100%
same,Hill (activation),α3β4 AChRs [9],1.3
same,EC50,α3β4 AChRs [9]; read-out: Activation EC50,170 ± 30 nM
same,Hill (desensitization),α3β4 AChRs [10],−0.5
same,IC50,α3β4 AChRs [10]; [12],330 ± 100 nM
"CCN1C[C@]2(COC(=O)c3ccccc3N3C(=O)C[C@H](C)C3=O)CC[C@H](OC)[C@@]34[C@@H]5C[C@H]6[C@H](OC)[C@@H]5[C@](O)(C[C@@H]6OC)[C@@](O)([C@@H](OC)[C@H]23)[C@@H]14 [MLA, methyllycaconitine]",Effect of antagonist on residual agonist response,α7 AChRs [11],abrogated
